B1: BMP-7: growth factor that induces expression of L1 in neural cells (protein, UniProt P18075 293-431, looked up)
Bone morphogenetic protein 7: STGSKQRSQNRSKTPKNQEALRMANVAENSSSDQRQACKKHELYVSFRDLGWQDWIIAPEGYAAYYCEGECAFPLNSYMNATNHAIVQTLVHFINPETVPKPCCAPTQLNAISVLYFDDSSNVILKKYRNMVVRACGCH

Experiments:
[1] = test system: BMP-7 treated NG108-15 neuroblastoma×glioma cells; assay: Cell-cell adhesion (short-term aggregation) assay in BMP-7 treated NG108-15 cells; assay type: cell-based, rat and mouse; details: for Inhibition of cell-cell adhesion (in words): both cellular systems (NG108-15 + BMP-7 and L1-expressing NIH/3T3); for Inhibition of cell-cell adhesion at higher concentrations (in words): concentrations 5-10 fold higher than those reported in Table 1
Protocol: NIH/3T3 cells were cultured in Dulbecco's minimum Eagle medium (DMEM) (Life Technologies, Gaithersburg, Md.) supplemented with 10% normal calf serum (Intergen, Purchase, N.Y.) and 400 μg/ml G418 (Life Technologies). NG108-15 neuroblastoma×glioma cells (passages 21 to 30) were plated in serum-free, defined medium (Reference 16). At the start of the morphogenetic and cell adhesion assays, serum-free medium containing BMP-7 (Creative BioMolecules, Hopkinton, Ma.) (1-40 ng/ml, final) was added daily to the NG108-15 cells. Both cell lines were cultured at 37° C., in an atmosphere of 90% air and 10% CO2. Three NIH/3T3 subclones were utilized in these studies: 2B2-L1, 2A2-L1 and Vec-1A5. The 2B2-L1 and 2A2-L1 cell lines are subclones derived from a stable transfection of NIH/3T3 cells with the human L1 cDNA, and Vec-1A5 is a subclone from a transfection with the empty expression vector (Reference 12).
Cells were cultured and cell adhesion assays were performed in the absence and presence of the alcohols listed below in Table 1. The concentrations of alcohols used in the adhesion assays were calculated to produce membrane concentrations equivalent to 50-100 mM ethanol. Membrane/buffer partition coefficients (Pm/b) were obtained or were calculated from published octanol/water partition coefficients (Reference 15). Molar volumes were obtained from published sources (References 15) or were calculated from molecular weights and densities at 20° C.
(§1) Cell-cell adhesion was measured using a modified short-term aggregation assay of sub-confluent cells (Reference 12). Cells were detached by gentle agitation, mechanically dissociated to obtain a single-cell suspension, and diluted in PBS supplemented with 0.1 mg/ml DNase to 350,000 cells/ml for the NIH/3T3 cells, and 250,000 cells/ml for the NG108-15 cells. One ml of the cell suspension was added per well (4.5 cm^2) of a 12-well plate. After addition of the alcohols, the cells were gently mixed and mechanically shaken for 30 minutes at room temperature on an orbital shaker set at 60 to 80 rpm. Cells were viewed at a final magnification of 200×, and each well was scored for single and adherent cells in five or six microscopic fields of view. We counted approximately 100 cells per field of view and 600 cells per well. The percentage of adherent cells was calculated for each microscopic field of view and averaged. To calculate the magnitude of ethanol inhibition, we subtracted the values for cell adhesion with the Vec-1A5 cells from those of the 2B2-L1 or 2A2-L1 cell lines. Similarly, the values for cell adhesion in NG108-15 cells cultured in serum-free medium were subtracted from those of NG108-15 cells treated with BMP-7.
We tested the effects of a series of alcohols on cell-cell adhesion in two well-characterized model systems. NG108-15 cells were incubated for 48 hours in a serum-free medium supplemented with 10-20 ng/ml BMP-7 to induce L1 and N-CAM gene expression (Reference 10). Parallel experiments were performed using two ethanol-sensitive NIH/3T3 cell lines transfected with human L1 (2B2-L1 and 2A2-L1) (Reference 12) and a NIH/3T3 cell line transfected with the empty expression vector (1A5-V).

[2] = test system: NIH/3T3-L1 (2B2-L1) cells; assay: Antagonism of 1-butanol inhibition of cell adhesion in NIH/3T3-L1 (2B2-L1) cells; assay type: cell-based, rat; details: 2B2L1 cells, no 1-octanol pretreatment, washed
Protocol: as §1, with “BMP-7. […]” for “BMP-7.”

[3] = test system: BMP-7 treated NG108-15 cells; assay: Antagonism of short-chain alcohol inhibition of cell adhesion in BMP-7 treated NG108-15 cells; assay type: cell-based, rat and mouse
Protocol: as §1

[4] = published or calculated from molecular weight and density at 20° C.; cited from earlier work
[5] = from published source or octanol/water partition coefficient divided by 5; cited from earlier work
NG108-15 cells = assay: BMP-7 morphogenesis (cell clusters) in NG108-15 cells; assay type: cell-based, rat and mouse; details: 0.1-40 ng/ml BMP-7, 3 days
Protocol: NG108-15 cells were plated from suspensions of single cells at a density of 50,000 cells/well in poly-D-lysine-coated, 6-well plated containing serum-free medium in the absence or presence of BMP-7, as described (References 17-18). […] Control cultures were treated similarly. The media for all cells was replaced daily following the addition of ethanol. […] A cell cluster was defined as a group of three or more cells that adhered to each other along at least one quarter of their cell bodies (Reference 19). The percentage of cells in clusters was calculated by dividing the number of cells present in clusters by the total number of cells (150 to 200) in each field. Values obtained for each field of a treatment group were then averaged.
Treatment with BMP-7 for 48 hours causes NG108-15 cells to grow in clusters of adherent cells (BMP-7 morphogenesis), rather than as predominantly single cells.
The percentage of cells in clusters of three or more cells was scored from two separate fields viewed under 200×magnification.

Molecule	Inhibition of cell-cell adhesion (in words) [1]	Vm molar volume [4] [mL/mol]	P(m/b) membrane/buffer partition coefficient [5]	further results
1-butanol	maximally inhibited			1-butanol inhibition of cell-cell adhesion, control [2]: 43.6±3.0%
CCCCCO [1-pentanol]	not inhibited	108	5.02	Antagonism of inhibition of cell-cell adhesion by 1-butanol (in words) ([3]; 2 mM 1-butanol, BMP-7 treated NG108-15 cells): completely abolished; Antagonism of the effects of 3-methyl-1-butanol on cell adhesion (in words) ([3]; 3 mM 3-methyl-1-butanol): abolished; Antagonism of the effects of ethanol on cell adhesion (in words) ([3]; 100 mM ethanol): abolished; IC50 ([3]; NG108-15, read-out: IC50 for antagonism of 1-butanol (and ethanol) inhibition of cell-cell adhesion): 715 µM; Inhibition of cell-cell adhesion at higher concentrations (in words) [1]: inactivity
CCCO [1-propanol]	active			
CCC(CC)CO [2-ethyl-1-butanol]	did not reduce activity	123	9.14	
CC(C)CO [2-methyl-1-propanol]	active	90	1.10	
CCCC(C)(C)O [2-methyl-2-pentanol]		122	5.20	
CCCC(C)O (stereo not drawn) [2-pentanol]	abolished activity	109	4.38	
CC(C)(C)CCO [3,3-dimethyl-1-butanol]	did not reduce activity	121	5.77	Potency for inhibition of cell adhesion relative to 2-ethyl-1-butanol ([1]; IC50 comparison, FIG. 2): more than four times as potent
C=CCCO [3-buten-1-ol]	abolished activity	86	1.00	Inhibition of cell-cell adhesion at higher concentrations (in words) [1]: inactivity
CC(C)CCO [3-methyl-1-butanol]	did not reduce activity	109	2.89	
CCC(O)CC [3-pentanol]		107	4.69	
CC(C)CCCO [4-methyl-1-pentanol]		126	9.36	Inhibition of cell-cell adhesion at higher concentrations (in words) [1]: inactivity
OCc1ccccc1 [benzyl alcohol]	did not	104	2.52	
OC1CCC1 [cyclobutanol]	inhibited	78	0.91	
OC1CCCC1 [cyclopentanol]	did not	92	2.24	Inhibition of cell-cell adhesion at higher concentrations (in words) [1]: inactivity
OCC1CC1 [cyclopropyl methanol]	active	71	0.71	
CC(O)C1CC1 (stereo not drawn) [cyclopropyl-ethanol, cyclopropylethanol]	abolished activity	91	0.83	Inhibition of cell-cell adhesion at higher concentrations (in words) [1]: inactivity
CC(C)c1cccc(C(C)C)c1O [propofol]	did not inhibit	86	1.00	
B1				Percentage of adherent NG108-15 cells ([1]; 48 hours, 10-20 ng/ml BMP-7, control 17.0±[…]): 50.0±1.4%; Percentage of cell clusters (NG108-15 cells): dose-dependent increase

From patent US6359015B1, “Method for antagonizing inhibition effects of alcohol on cell adhesion” (The United States of America as represented by the …, priority 2000, dated 2002)
